Laboratory results: patent publication US9725432B2, “Pyrimidine derivatives for the treatment of bacterial diseases” (JANSSEN R&D IRELAND, priority 2012, dated 2017)
≈ marks a conversion by molar mass, not a printed value.

Legend:
[1] = test system: Staphylococcus aureus; test: Antibacterial susceptibility testing: IC90 determination (broth microdilution, resazurin fluorescence); type: cell-based; settings: 90% inhibitory concentration for bacterial growth, Mueller Hinton broth, 35° C., 16-20 hours, strain not given
Protocol: Preparation of Bacterial Suspensions for Susceptibility Testing
The following bacteria were used: Staphylococcus aureus ATCC 29213, methicillin-resistant Staphylococcus aureus (MRSA) ATCC 700788 and Escherichia coli ATCC 35218. The bacteria used in this study were grown overnight in flasks containing 100 ml Mueller-Hinton broth (Difco cat. nr. 0757-17) in sterile de-ionized water, with shaking, at 37° C. Stocks were store at −70° C. until use.
Bacteria were incubated on a tryptic soy agar plate containing 5% sheep blood (Becton Dickinson cat. nr. 254053) for 18-24 hours at 35° C. in aerobic conditions (first passage). For the second passage, fresh Mueller-Hinton broth is inoculated with 5-10 colonies and grown overnight at 35° C. until turbidity (reaching log-phase) in aerobic conditions is reached. The bacterial suspension is then adjusted to 0.5 McFarland density and further diluted 1:100 in Mueller Hinton broth medium. This is used as inoculum.
Antibacterial Susceptibility Testing: IC90 Determination
MIC assays were performed by the broth microdilution method in a 96-well format (flat-bottom microtitre plates) with a final volume of 0.1 ml Mueller Hinton broth containing two-fold serial dilutions of compounds and inoculated with 5×10^5 CFU/ml of bacteria (standard inoculum size according to CLSI guidelines). Inhibitors are typically varied over the range of 63 to 0.49 μM. The final DMSO concentration in the assay was 1.25% (maximum tolerable DMSO concentration=6%). In the assays where the effect of human serum on the activity of the compounds against S. aureus was tested, human serum was added at a final concentration of 10%. The plates were incubated at 35° C. for 16-20 hours. At the end of incubation the bacterial growth was quantified fluorometrically. For this, resazurin was added to all wells and the plates were re-incubated. The incubation time is dependent on the type of bacteria. A change in color from blue to pink indicated the growth of bacteria. The fluorescence was read in computer-controlled fluorometer (Fluoroskan Ascent FL, Labsystems) at an excitation wavelength 540 nm and an emission wavelength of 590 nm. The % growth inhibition achieved by the compounds was calculated according to standard methods. The IC90 (expressed in μg/ml) was defined as the 90% inhibitory concentration for bacterial growth. A panel of reference compounds were simultaneously tested for QC approval.

[2] = Cytotoxicity MTT assay; type: cell-based; settings: human, HelaM cells, concentration that causes 50% reduction in cell viability
Protocol: Cytotoxicity of the compounds was evaluated using the MTT assay. Human HelaM cells grown in 96-well plates were exposed to serial dilutions of the tested compounds (final volume of 0.2 ml) and incubated for 72 hours at 37° C. and 5% CO2 Inhibitors are typically varied over the range of 25 to 0.8 μM. The final DMSO concentration in the assay is 0.5%. MTT (3-(4,5-Dimethylthiazol-2-yl)-2,5-diphenyltetrazolium bromide, a tetrazole) was added and reduced to purple formazan only in living cells. Solubilization of the formazan crystals was achieved by adding 100 μl 2-propanol. Cell viability was determined by measuring the absorbance of the reduced formazan, giving a purple color, at 540 nm and 690 nm. The absorbance measured at 690 nm was automatically subtracted from the absorbance at 540 nm, to eliminate the effects of non-specific absorption. The percent cytotoxicity achieved by the compounds was calculated according to standard methods. Cytotoxicity is reported as CC50, the concentration that causes a 50% reduction in cell viability.

Structure (SMILES) | IC90 [1] | melting point | CC50 at 72 h [2]
COc1cccc(-c2cnc(-c3ccncc3)nc2C2CCN(Cc3sccc3C)CC2)c1 [Compound 1] | 8.5 µg/mL (≈ 18.6 µM) | – | –
C/C=C(\C)CN1CCC(c2nc(-c3ccncc3)ncc2-c2cccc(OC)c2)CC1 [Compound 2] | 13.7 µg/mL (≈ 33.1 µM) | – | –
COc1cccc(-c2cnc(-c3ccncc3)nc2C2CCN(Cc3cccc(F)c3)CC2)c1 [Compound 3] | 5.59 µg/mL (≈ 12.3 µM) | 111 to 114 °C | > 4.5 µg/mL
COc1cccc(-c2cnc(-c3ccncc3)nc2C2CCN(Cc3ccsc3)CC2)c1 [Compound 4] | 12.9 µg/mL (≈ 29.2 µM) | 135 °C | > 11.1 µg/mL
COc1cccc(-c2cnc(-c3ccncc3)nc2C2CCN(Cc3cc(Cl)ccc3O)CC2)c1 [Compound 5] | 2.1 µg/mL (≈ 4.31 µM) | 227 to 228 °C | 6.3 µg/mL (≈ 12.9 µM)
COc1cccc(-c2cnc(-c3ccncc3)nc2C2CCN(CC(C)(C)C)CC2)c1 [Compound 6] | 1.05 µg/mL (≈ 2.52 µM) | 118 °C | > 10.5 µg/mL
Oc1ccccc1CN1CCC(c2nc(-c3cccnc3)ncc2-c2ccccc2)CC1 [Compound 7] | 14.3 µg/mL (≈ 33.9 µM) | – | –
Cc1cccc(-c2cnc(-c3ccncc3)nc2C2CCN(Cc3ccccc3O)CC2)c1 [Compound 8] | 5.5 µg/mL (≈ 12.6 µM) | 149 to 151 °C | > 4.4 µg/mL
COc1cccc(-c2cnc(-c3ccncc3)nc2C2CCN(Cc3ccc(Cl)cc3O)CC2)c1 [Compound 9] | 0.97 µg/mL (≈ 1.99 µM) | 119 to 123 °C | 5.9 µg/mL (≈ 12.1 µM)
COc1cccc(-c2cnc(-c3ccncc3)nc2C2CCN(Cc3ccccc3O)CC2)c1 [Compound 10] | 1.68 µg/mL (≈ 3.71 µM) | 142 to 146 °C | 9.9 µg/mL (≈ 21.9 µM)
COc1cccc(-c2cnc(-c3ccncc3)nc2C2CCN(CC(C)C)CC2)c1 [Compound 11] | 5.49 µg/mL (≈ 13.6 µM) | 105 to 106 °C | > 10.1 µg/mL
COc1cccc(-c2cnc(-c3ccncc3)nc2C2CCN(C3CC3)CC2)c1 [Compound 12] | 5.78 µg/mL (≈ 15 µM) | 153 to 156 °C | > 9.7 µg/mL
Cc1cccc(-c2cnc(-c3ccncc3)nc2C2CCN(Cc3cc(Cl)ccc3O)CC2)c1 [Compound 13] | 1.71 µg/mL (≈ 3.63 µM) | 180 to 181 °C | 5.2 µg/mL (≈ 11 µM)
Cc1cccc(-c2cnc(-c3ccncc3)nc2C2CCN(Cc3cccc(F)c3)CC2)c1 [Compound 14] | 9.16 µg/mL (≈ 20.9 µM) | 195 to 196 °C | > 11 µg/mL
Cc1cccc(-c2cnc(-c3ccncc3)nc2C2CCN(CC(C)(C)C)CC2)c1 [Compound 15] | 1.49 µg/mL (≈ 3.72 µM) | 123 to 127 °C | > 10.1 µg/mL
COc1cccc(-c2cnc(-c3ccncc3)nc2C2CCN(Cc3ccccc3)CC2)c1 [Compound 16] | 6.92 µg/mL (≈ 15.9 µM) | 174 °C | > 11 µg/mL
COc1cccc(-c2cnc(-c3ccncc3)nc2C2CCN(CC3CCCCC3)CC2)c1 [Compound 17] | 13.4 µg/mL (≈ 30.2 µM) | 130 °C | > 11.1 µg/mL
COc1cccc(-c2cnc(-c3ccncc3)nc2C2CCN(Cc3ccco3)CC2)c1 [Compound 18] | 13 µg/mL (≈ 30.5 µM) | 120 °C | > 10.7 µg/mL

Structure (SMILES) | IC90 [1] | melting point | CC50 at 72 h [2]
COc1cccc(-c2cnc(-c3ccncc3)nc2C2CCN(Cc3cccs3)CC2)c1 [Compound 19] | 5.57 µg/mL (≈ 12.6 µM) | 130 °C | > 11.1 µg/mL
COc1cccc(-c2cnc(-c3ccncc3)nc2C2CCN(C(=O)C(C)Oc3ccccc3)CC2)c1 (stereo not shown) [Compound 20] | 7.15 µg/mL (≈ 14.5 µM) | – | 8.1 µg/mL (≈ 16.4 µM)
COc1cccc(-c2cnc(-c3ccncc3)nc2N2CCN(CC(C)(C)C)CC2)c1 [Compound 21] | 0.39 µg/mL (≈ 0.934 µM) | 117 to 120 °C | 5.9 µg/mL (≈ 14.1 µM)
COc1cccc(-c2cnc(-c3ccncc3)nc2N2CCC(NC(=O)C(C)Oc3ccccc3)CC2)c1 (stereo not shown) [Compound 22] | 5.16 µg/mL (≈ 10.1 µM) | 106 to 108 °C | 8.5 µg/mL (≈ 16.7 µM)
COc1cccc(-c2cnc(-c3ccccn3)nc2C2CCN(Cc3cc(Cl)ccc3O)CC2)c1 [Compound 23] | 7.37 µg/mL (≈ 15.1 µM) | 165 to 166 °C | 4.4 µg/mL (≈ 9.03 µM)
COc1cccc(-c2cnc(-c3cccnc3)nc2C2CCN(CC(C)(C)C)CC2)c1 [Compound 24] | 1.68 µg/mL (≈ 4.03 µM) | 222 to 224 °C | > 11.4 µg/mL
COc1cccc(-c2cnc(-c3ccncc3)nc2C2CCN(C(=O)C(C)(C)C)CC2)c1 [Compound 25] | 3.27 µg/mL (≈ 7.59 µM) | 165 °C | > 10.8 µg/mL
COc1cccc(-c2cnc(-c3ccncc3)nc2N2CCC(c3ccccc3)CC2)c1 [Compound 26] | 7.51 µg/mL (≈ 17.8 µM) | 157 to 159 °C | 5.7 µg/mL (≈ 13.5 µM)
COc1cccc(-c2cnc(-c3cccnc3)nc2C2CCN(C(=O)C(C)Oc3ccccc3)CC2)c1 (stereo not shown) [Compound 27] | 9.1 µg/mL (≈ 18.4 µM) | 138 to 140 °C | 7.1 µg/mL (≈ 14.4 µM)
COc1cccc(-c2cnc(-c3ccncc3)nc2C2CCN(Cc3cccc(C(F)(F)F)c3)CC2)c1 [Compound 28] | 5.28 µg/mL (≈ 10.5 µM) | 156 °C | 4.7 µg/mL (≈ 9.32 µM)
CN(C)c1ncc(-c2ccccc2F)c(C2CCN(CC(C)(C)C)CC2)n1 [Compound 51] | 13.4 µg/mL (≈ 36.3 µM) | – | 7.8 µg/mL (≈ 21.1 µM)
CN(C)c1ncc(-c2cccc(Cl)c2)c(C2CCN(CC(C)(C)C)CC2)n1 [Compound 52] | 1.28 µg/mL (≈ 3.31 µM) | – | 6.7 µg/mL (≈ 17.3 µM)
COc1ccc(-c2cnc(N(C)C)nc2C2CCN(CC(C)(C)C)CC2)cc1 [Compound 53] | 5.47 µg/mL (≈ 14.3 µM) | – | 7.5 µg/mL (≈ 19.6 µM)
COc1cccc(-c2cnc(-c3ccncc3)nc2C2CCN(CC(F)(F)F)CC2)c1 [Compound 55] | 0.39 µg/mL (≈ 0.91 µM) | – | 6.3 µg/mL (≈ 14.7 µM)
CC(C)(C)CN1CCCC(c2nc(-c3ccncc3)ncc2-c2cccc(C#N)c2)C1 (stereo not shown) [Compound 61] | > 25.9 µg/mL | – | > 10.3 µg/mL
COc1cccc(-c2cnc(-c3ccncc3)nc2C2CCN(CC(C)(F)F)CC2)c1 [Compound 70] | 0.64 µg/mL (≈ 1.51 µM) | – | 6.7 µg/mL (≈ 15.8 µM)
COc1cccc(-c2cnc(-c3ccc(F)cc3)nc2C2CCN(CC(F)(F)F)CC2)c1 [Compound 71] | < 0.22 µg/mL | – | –
CC1(CN2CCC(c3nc(-c4ccncc4)ncc3-c3cccc(C#N)c3)CC2)COC1 [Compound 72] | 25.9 µg/mL (≈ 61 µM) | – | –
